The subject of one data set is C. trachomatis serovar D. To be noted: C. trachomatis serovar D in cell culture; cited from earlier work. As for the experimental part: The tested compounds were applied to C. trachomatis-infected cells at an early stage of the chlamydial developmental cycle (Figure 1a), before the bacteria started replicating. During the early treatment with MRY D2, the majority of muraymycin derivatives and cCPZ had MICs between 16 µg/mL for cCPZ and 128 µg/mL for MRY D2 (Figure 1d). These MICs were relatively high compared with the MICs of the first-choice antibiotics against uncomplicated chlamydial genital infections, DOX and AZI, which have MICs of <1 µg/mL against C. trachomatis serovar D in cell culture. All der ...

Data set [1] has as its system C. trachomatis D/UW-3/CX. Briefly: Anti-chlamydial activity (MIC) in C. trachomatis-infected HEp-2 cells, fluorescence microscopy. It counts as cell-based. To be noted: for Effect on C. trachomatis infection (phenotype): added at 2 hpi, read at 30 hpi, HEp-2 cells; for MIC: C. trachomatis D/UW-3/CX-infected HEp-2 cells, compound added at 2 hpi, fluorescence microscopy at 30 hpi, MIC = lowest concentration with >90% reduction in inclusions or inducing enlarged aberrant cells, three experiments. As for the experimental part: First, we tested the lead compound MRY D2 (Figure 1a) and seven muraymycin derivatives (MRH; described in [47, 48]) on C. trachomatis in cell culture experiments. To this end, C. trachomatis D/UW-3/CX-infected HEp-2 cells were treated with the compounds at 2 h post infection (hpi; Figure 1b), which represents an early stage of the chlamydial developmental cycle before bacterial replication. Inhibitors were applied over a range of concentrations that were not detrimental to HEp-2 host cells in resazurin-based viability assays (Table S1), and the effects were visualized by fluorescence microscopy (Figure 1c and Figure S2) at 30 hpi. The minimal inhibitory concentration (MIC) for Chlamydia was defined as either the lowest concentration leading to a >90% reduction in inclusions or, for aberrance-inducing compounds, the concentration leading to abnormal chlamydial cell phenotypes, i.e., enlarged cells after treatment with PEN G [39].
(§1) The effect of the compounds on active C. trachomatis infections was analyzed by fluorescence microscopy. […] The cells were washed once with medium and infected with freshly prepared C. trachomatis D/UW-3/CX EB-containing suspension. After 2 h incubation, the EB suspension was aspirated, and the cells were washed twice with medium. The effect of compounds on an infection was determined by application of the compound at 2 hpi or 12 hpi in a serial dilution from 1 µg/mL to 64 µg/mL (MRH-25, -76, -92, cCPZ) or from 1 µg/mL to 128 µg/mL (MRY D2, MRH-22, -23, -38, and -82). Negative controls were conducted with DMSO as a vehicle control. For Chlamydia, the MIC is defined as a >90% reduction in inclusions. The MIC of compounds inducing the formation of enlarged, aberrant bodies is the lowest concentration that induces the abnormal inclusion morphology.
Infected HEp-2 cells were fixed and permeabilized with 100% (v/v) ice-cold methanol at 30 hpi and washed once with 1 × phosphate-buffered saline (PBS, 4 mM KH2PO4 pH 7.4, 16 mM Na2HPO4, 115 mM NaCl). The Pathfinder Chlamydia Culture Confirmation System (Bio-Rad Laboratories, Hercules, CA) was used to stain the C. trachomatis lipopolysaccharide and host cell cytoplasm by incubation for 30 min at 37 °C. Genomic DNA was stained with 10 µg/mL DAPI (Thermo Fisher Scientific) for 1 min and then washed twice with PBS for 10 min at 4 °C. Fluorescence microscopy was performed with an Axio observer Z.1 using the Zen2 software (Carl Zeiss, Oberkochen, Germany).

Data set [2] concerns Wolbachia strain B of A. albopictus. As to the kind of experiment: Quantification (depletion) of Wolbachia by qPCR, 16S rDNA/actin B ratio. It counts as cell-based, Wolbachia strain B of Aedes albopictus. The note with it: 4 µg/mL, 9 days, C6/36 cells, positive control. For orientation: Quantitative PCR measures a nucleic acid by following its amplification.
Procedure: (a) A. albopictus C6/36 cells infected with Wolbachia strain B of A. albopictus were cultured for 9 days with or without the compounds at varying concentrations. […] (c) The depletion of Wolbachia from infected and treated C6/36 cells was measured after 9 days by extracting genomic DNA and measuring the ratio of Wolbachia 16S rDNA and A. albopictus actin B by qPCR; the median ± interquartile range from three experiments is shown.
Susceptibility of Wolbachia toward different compounds was tested as described [32, 53]. In short, 1 × 10^4 cells/well of A. albopictus C6/36 infected with Wolbachia were cultured in supplemented medium in 96-well plates with or without compound at 26 °C for 9 days. The medium, with and without compound, was exchanged every third day, and the cells were harvested on day 9 for the extraction of genomic DNA using the QIAamp Kit (Qiagen, Hilden, Germany) according to the manufacturer’s protocol. Wolbachia were quantified by qPCR of the 16S rDNA gene of Wolbachia (GenBank accession No. X61767) and the actin B gene of A. albopictus (GenBank accession no. DQ657949) as described [32, 91]. A plasmid containing the appropriate insert was used to generate a standard curve to determine the copy number of the genes. The abundance of Wolbachia was normalized by calculating the ratio of 16S rDNA copies/µL to actin B copies/µL.
For a further data set, the system named is C. pneumoniae MraY. As to the kind of experiment: Inhibition of C. pneumoniae MraY in vitro (lipid I formation, TLC). It counts as biochemical. The note with it: 0.5 µM compound (range tested 0.05-0.5 µM), 2 µg MraYCpn, C55-P, UDP-MurNAc-pentapeptide, 90 min, duplicate. An excerpt: (a) C. pneumoniae and Wolbachia spp. MraY use the precursor molecules undecaprenyl-phosphate (C55-P) and uridine diphosphate (UDP)-N-acetylmuramoyl(MurNAc)-pentapeptide to form lipid I, which is glycosylated with N-acetylglucosamine (GlcNAc) by MurG, yielding lipid II. IM: inner membrane; UMP: uridine monophosphate; mDAP: meso-diaminopimelic acid; C55-P: undecaprenyl-phosphate. […] Reaction products were extracted, separated via thin-layer chromatography, and stained. Formation of lipid I by MraYCpn was inhibited by both tested inhibitors.
C. pneumoniae MraY was heterologously overexpressed in E. coli, purified via His-tag affinity chromatography, and inhibition of the enzymatic activity was analyzed by visualizing the reaction products via thin-layer chromatography.
Inhibition assays with MraYCpn and the compounds were performed based on the activity assays for MraYCpn as previously described, with minor modifications, in a final volume of 50 µL. First, 2.5 nmol C55-P (Larodan, Solna, Sweden) was dissolved in 0.43% (v/v) Triton X-100 by vortexing for 1 min. Then, 75 mM Tris-HCl (pH 7.5), 6 mM MgCl2, 10% (v/v) DMSO, and UDP-MurNAc-pentapeptide obtained from Bacillus cereus DSM2302 (based on) were added. Compounds were applied at the indicated concentrations and incubated with 2 µg MraYCpn at 30 °C for 90 min. […]

The test system of data set [3] is C. trachomatis D/UW-3/CX. Briefly: Effect of MRY D2 on active (mid-stage) and penicillin G-induced persistent C. trachomatis infections, inclusion counts. It counts as cell-based. To be noted: read at 30 hpi. The protocol:
Figure 6 Effect of MRY D2 on PEN G-induced persistent C. trachomatis infections. (a) HEp-2 cells infected with C. trachomatis D/UW-3/CX were treated with 128 µg/mL MRY D2 at 2 hpi or 12 hpi to analyze the effect on active infection. Additionally, 128 µg/mL MRY D2 and 100 U/mL PEN G were added simultaneously at 2 hpi. To assess the effect on a PEN G-induced persistent infection, 100 U/mL PEN G was added at 2 hpi, and 128 µg/mL MRY D2 was added at 12 hpi. Anti-chlamydial activity was analyzed at 30 hpi by fluorescence microscopy. (b) Eukaryotic host cell cytoplasm from representative images was labelled with Evans Blue (red), genomic DNA with DAPI (blue), and chlamydial lipopolysaccharide with fluorescein (green). Scale bar: 10 µm. (c) Mean ± SD of inclusions/field and (d) the relative number of inclusions filled with either elementary bodies (EBs)/reticulate bodies (RBs), ABs, or a mixed phenotype, analyzed from three images. An unpaired, two-tailed Student’s t-test was performed against the respective vehicle control. ns: not significant, p > 0.05; *: p = 0.05 to 0.01; **: p = 0.01 to 0.001; ****: p < 0.0001. In comparison with the DMSO vehicle control, the addition of PEN G at 2 hpi induced persistence, characterized by aberrant bodies. Early application of MRY D2 at 2 hpi (p < 0.0001) and simultaneous application with PEN G at 2 hpi induced the formation of ABs. […] This was also visible if persistence was induced by PEN G at 2 hpi followed by MRY D2 addition at 12 hpi (p = 0.0037).
as §1
The effect of MRY D2 on penicillin-induced persistent C. trachomatis infections was analyzed as described for the active infection, with the following modifications. After removal of the EB-containing lysate at 2 hpi and washing of the cells, 100 U/mL PEN G was added to induce a persistent infection. MRY D2 was added at 12 hpi in a concentration range of 128 µg/mL to 1 µg/mL by serial dilution. In another approach, MRY D2 was applied simultaneously with PEN G at 2 hpi to determine if early administration influences the establishment of a persistent infection.
Infected HEp-2 cells were fixed and permeabilized with 100% (v/v) ice-cold methanol at 30 hpi and washed once with 1 × phosphate-buffered saline (PBS, 4 mM KH2PO4 pH 7.4, 16 mM Na2HPO4, 115 mM NaCl). The Pathfinder Chlamydia Culture Confirmation System (Bio-Rad Laboratories, Hercules, CA) was used to stain the C. trachomatis lipopolysaccharide and host cell cytoplasm by incubation for 30 min at 37 °C. […] Fluorescence microscopy was performed with an Axio observer Z.1 using the Zen2 software (Carl Zeiss, Oberkochen, Germany).
Inclusions were quantified using CellProfiler 4.0.6. […]

The test system of data set [4] is HEp-2 cells. Briefly: Cytotoxicity toward HEp-2 cells, resazurin-based alamarBlue viability assay. To be noted: 28 h incubation, normalized to DMSO, non-linear regression from mean of two independent experiments, highest concentration tested 128 µg/mL.
Procedure: (§2) Cytotoxicity of the compounds toward HEp-2 cells was assessed using the resazurin-based alamarBlue cell viability reagent (Thermo Fisher Scientific, Waltham, MA, USA). 5 × 10^4 HEp-2 cells/mL were seeded into flat base TC-96-well plates (Sarstedt, Nümbrecht, Germany) and incubated at 37 °C and 5% (v/v) CO2. After 48 h, the cells were washed with medium, followed by the addition of compounds in a serial dilution ranging from 128 µg/mL to 1 µg/mL for another 28 h. Next, the cells were washed twice with Hank’s balanced salt solution (HBSS) and incubated with the alamarBlue cell viability reagent diluted 1:10 in HBSS for 1 h. The conversion of resazurin into resorufin by viable cells was determined by transferring the supernatant into black 96-well plates (Greiner Bio-One, Frickenhausen, Germany) and measuring the fluorescence at 550 nm excitation and 595 nm emission wavelengths using a Tecan infinite M200 plate reader and Tecan SparkControl software v3.2 (Tecan Group, Männedorf, Switzerland). HEp-2 cell viability was normalized to the vehicle control, and the cytotoxic concentration 50% (CC50) was calculated by non-linear regression using GraphPad Prism v10.1.2 (GraphPad Software, San Diego, CA, USA).
Data set [5] concerns HEp-2 cells.
Procedure: as §2
The mark [6] stands for this setting: 128 µg/mL MRY D2 alone added at 12 hpi.

In brackets after ≈: the same amount, converted by molar mass. Read-outs that look alike come from different tables or passages of the source.

As to `CC[C@H]1OC(=O)[C@H](C)[C@@H](O[C@H]2C[C@@](C)(OC)[C@@H](O)[C@H](C)O2)[C@H](C)[C@@H](O[C@@H]2O[C@H](C)C[C@H](N(C)C)[C@H]2O)[C@](C)(O)C[C@@H](C)CN(C)[C@H](C)[C@@H](O)[C@]1(C)O` [AZI, azithromycin], the MIC (in general, the lowest concentration found to suppress growth) in the data set on C. trachomatis serovar D is listed as less than 1 µg/mL.

In the case of `O=C(O)c1cn(C2CC2)c2cc(N3CCNCC3)c(F)cc2c1=O` [CIP, ciprofloxacin, reference compound], the “Effect on C. trachomatis infection (phenotype)” value with C. trachomatis D/UW-3/CX [1] (0.5 µg/mL) is reported as “bactericidal”.

For the molecule `C[C@H]1c2cccc(O)c2C(=O)C2=C(O)[C@]3(O)C(=O)C(C(N)=O)=C(O)[C@@H](N(C)C)[C@@H]3[C@@H](O)[C@@H]21` [DOX, doxycycline], the “Depletion of Wolbachia (16S rDNA/actin B by qPCR)” value in data set [2] is given as “nearly completely depleted”. Besides, the MIC with C. trachomatis serovar D is given as less than 1 µg/mL.

For `CC(C)C[C@H](NC(=O)[C@@H](NC(=O)N[C@H](C(=O)O)C(C)C)[C@@H]1CCN=C(N)N1)C(=O)NCCCN[C@H](C(=O)O)[C@H](O[C@@H]1O[C@H](CN)[C@@H](O)[C@H]1O)[C@H]1O[C@@H](n2ccc(=O)[nH]c2=O)[C@H](O)[C@@H]1O` [MRY D2, Muraymycin D2], the MIC with C. trachomatis D/UW-3/CX [1] is given as 128 µg/mL (≈ 140 µM). Further, in the data set on C. pneumoniae MraY, the “Inhibition of lipid I formation by recombinant MraYCpn” value is given as “completely abolished enzymatic activity”. In addition, in the data set with C. trachomatis D/UW-3/CX [3] (setting [6]), the “Relative number of inclusions containing EBs/RBs” value is listed as 83% and the “Relative number of inclusions containing a mixed phenotype (EBs/RBs/ABs)” value amounted to 8%. In addition, in the data set on C. trachomatis D/UW-3/CX [3] (128 µg/mL MRY D2 and 100 U/mL PEN G added simultaneously at 2 hpi), the “Phenotype on simultaneous treatment with PEN G” value was “inclusions filled with ABs were visible as for PEN G alone”. Besides, in the data set on C. trachomatis D/UW-3/CX [3] (active infection: 128 µg/mL MRY D2 alone added at 12 hpi), the “Fewer inclusions (reduction in inclusion number)” value is recorded as 75%. Besides, in the data set with C. trachomatis D/UW-3/CX [3] (established persistent infection: 100 U/mL PEN G at 2 hpi, then 128 µg/mL MRY D2 at 12 hpi, vs PEN G only), the “Reduction of the inclusion quantity” value was 70%. The CC50 (usually the concentration giving 50% cytotoxicity) in the data set with HEp-2 cells [4] is more than 128 µg/mL.

As to `CC1(C)S[C@@H]2[C@H](NC(=O)Cc3ccccc3)C(=O)N2[C@H]1C(=O)O` [PEN, penicillin, reference compound], the “Effect on C. trachomatis infection (phenotype)” value in the data set with C. trachomatis D/UW-3/CX [1] (100 U/mL) is reported as “induced persistence visible as enlarged, aberrant bodies”.

In the data set on C. trachomatis D/UW-3/CX [1], `CCCCCCCCCCCCCCCCC[C@H]1CN(C)[C@@H]([C@H](O[C@@H]2O[C@H](CN)[C@@H](O)[C@H]2O)[C@H]2O[C@@H](n3ccc(=O)[nH]c3=O)[C@H](O)[C@@H]2O)C(=O)N(C)[C@@H]1C(=O)O` [cCPZ, carbacaprazamycin] came in with a minimum inhibitory concentration (MIC) of 16 µg/mL (≈ 20.1 µM). The molecule also displayed a CC50 in the data set with HEp-2 cells [5] of 124 µg/mL (≈ 155 µM).

(Values after publication PMC11117252, “The MraY Inhibitor Muraymycin D2 and Its Derivatives Induce Enlarged Cells in Obligate Intracellular Chlamydia and Wolbachia and Break the Persistence Phenotype in Chlamydia” (Antibiotics, 2024).)
